Values of other authors, collected in patent US6392068B1, “Carborane containing cholesterol, a new type of molecule for targeted boron drug delivery” (The University of Georgia Research Foundation, Inc., priority 1999, dated 2002).

Test system: tumor cell
Conditions: in-vitro; background statement

In the case of Na2B12H11 SH [BSH], the “retention in the tumor cell” value is given as “does not stay in the tumor cell but is easily washed out”.
